# Test results taken from PubChem BioAssay AID651717 (Broad Institute, 2012).
# Tested on: mESC Bmi1-luciferase reporter, firefly/renilla ratio, 24 h
# Test: compounds raising Bmi1 reporter signal – mouse embryonic stem cells, luciferase, cherry-pick, esBAF inhibitor project, dose response (AID 651717);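 further: luciferase knocked into Bmi1 locus with EF-1a renilla as cell number control; rising ratio signals esBAF inhibition which derepresses Bmi1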
row,SMILES,AC40
1,O=C(NC1CCCC1)c1cc(-c2ccc(Cl)c(Cl)c2)on1,2.8 µM
2,CCn1c(COc2ccccc2C)nc2ccccc21,3.51 µM
3,Cc1ccc2c(CN(C)Cc3cccc(F)c3)cc(=O)oc2c1,2.23 µM
4,CCc1sc(C(=O)Nc2ncccc2C)cc1C,20.1 µM
5,c1ccc(Oc2cc(-c3ccccc3)ncn2)cc1,2.16 µM
6,CN(Cc1nccn1C)C(=O)c1ccc2nc(Cc3ccccc3F)oc2c1,5.37 µM
7,COc1ccc(Nc2ncnc3sc(C)cc23)cc1,5.43 µM
8,CCCC(=O)Nc1ccc2c(c1)C(=O)N(C)C[C@H](OC)[C@@H](C)CN(Cc1ccc(-c3ccccn3)cc1)[C@@H](C)CO2,8.13 µM
9,CC(=O)N1N=C(c2ccc(Br)cc2)CC1c1ccc(Br)cc1 (stereo not given),14.5 µM
10,Nc1cccc(N=[N+]([O-])c2cccc(N)c2)c1,2.11 µM
11,COc1ccc(-c2ccc3oc(-c4ccsc4)cc(=O)c3c2)cn1,1.67 µM
12,Cc1ccc(O)c(NC(=O)c2ccc3c(c2)C(=O)N(CC(C)C)C3=O)c1,1.23 µM
13,C#CCSc1nnc(-c2ccc(O)cc2)o1,8.15 µM
14,Cc1ccc(C)c(N2CCN(C(=O)CCc3nc(-c4cccc(Cl)c4)no3)CC2)c1,2.83 µM
15,Clc1ccc(-c2nc(Cc3ccccc3)no2)cc1,1.85 µM
16,O=C(NCc1ccccn1)Nc1ccc(Br)cc1Cl,2.68 µM
17,CC(c1ccccc1)c1nnc(NC(=O)Nc2ccccc2F)s1 (stereo not given),6.51 µM
18,CN(CC(=O)Nc1cccc(F)c1)C(=O)c1sc2ccccc2c1Cl,23.3 µM
19,O=C(Nc1cccnc1Cl)c1cc(-c2ccccc2O)on1,1.09 µM
20,COc1ccccc1CNC(=O)C[C@@H]1CC[C@@H]2[C@H](COC[C@H](O)CN2C(=O)Nc2ccc(Cl)cc2)O1,1.36 µM
21,O=C(Nc1ccc(F)cc1)c1ccccc1F,5.97 µM
22,Clc1ccc(-n2nnc(-c3ncc[nH]3)n2)cc1Cl,11.6 µM
23,Cn1c(/C=C/c2ccc(Br)cc2)nc2ccccc2c1=O,4.88 µM
24,Cc1csc(NC(=O)Cc2c[nH]c3ccccc23)n1,10.2 µM

row,SMILES,AC40
1,O=C(CN1CCCCCC1)Nc1ccc(Br)cc1Br,8.51 µM
2,Oc1ccc(-c2cccc(-c3ccc(O)cc3)c2)cc1,6.78 µM
3,O=C(OCc1ccccc1)N1CCC2CC1c1cc(/C=C/CCCSc3ncccn3)ccc12 (stereo not given),12.2 µM
4,Nc1ccc2c(c1)C(=O)c1ccc(N)cc1-2,0.55 µM
5,O=C(Nc1ccc(Cl)cc1Cl)c1csc(-c2cccnc2)n1,6.82 µM
6,COc1ccc(N2CCN(C(=O)c3ccc(Cn4c(=S)[nH]c5ccc(N6CCOCC6)cc5c4=O)cc3)CC2)cc1,6.15 µM
7,N#CCc1nc(CSc2nc3ccccc3o2)cs1,12.3 µM
8,CCN1CCN(c2ccc(NC(=O)c3cccc(N4CCCC4=O)c3)cc2)CC1,10.3 µM
9,Cc1ccc(NCC(=O)N/N=C/c2cc3ccccc3nc2Cl)cc1,30.6 µM
10,COc1ccc(/C=N/OCc2ccccc2C#N)c(OC)c1,6.27 µM
11,CC(C)c1ccc(CNc2ncc(Br)cn2)cc1,4.25 µM
12,Cn1c(-c2ncc(F)cc2F)cc2onc(-c3c(F)cccc3Cl)c2c1=O,0.47 µM
13,COc1ccccc1C(=O)Nc1sc2c(c1C#N)CCC2,2.15 µM
14,COc1ccc(OCc2cc(C(=O)NC(C)c3csc(C)n3)no2)c(Cl)c1 (stereo not given),4.18 µM
15,COc1cc(SC)ccc1C(=O)NCC1CCCCC1,3.03 µM
16,COC(=O)c1ccc2[nH]c(C3(O)CCCCC3)c(C)c2c1,5.55 µM
17,COc1ccc(N=Cc2c(O)[nH]c3ccccc23)cc1OC,3.05 µM
18,CC(C)CN1C(=O)c2ccc(C(=O)Nc3nccs3)cc2C1=O,1.98 µM
19,O=C(c1ccncc1)N(c1ccc(N2CCOCC2)cc1)C(c1ccccc1)c1nc2ccccc2[nH]1 (stereo not given),1.01 µM
20,COc1ccc(OCc2cc(C(=O)N(Cc3nccn3C)C(C)C)no2)c2ccccc12,3.93 µM
21,CN(C)c1ccccc1-c1csc(N2CCC(C(N)=O)CC2)n1,< 0.26 µM
22,Cc1cc(C)c2c(CN(C)Cc3ccccc3)cc(=O)oc2c1,4.9 µM
23,CC(=O)N1CC2(CC(c3ccccc3F)=NO2)CN1c1ccc(Cl)cc1 (stereo not given),19.9 µM
24,CN(Cc1nccs1)C(=O)c1ccc2nc(Cc3ccccc3F)oc2c1,0.952 µM

row,SMILES,AC40
1,O=C(Nc1ccc2ccccc2c1)c1cccc2ccccc12,0.829 µM
2,O=C(NCc1ccc2c(c1)OCO2)Nc1cccc(Cl)c1,7.4 µM
3,COc1ccc(OCc2cc(C(=O)NC(C)c3nc(C)cs3)no2)c(Cl)c1 (stereo not given),10.4 µM
4,COc1ccc(C2CC2/C(=N/OC(=O)c2cccs2)c2ccccc2)cc1 (stereo not given),2.9 µM
5,COc1cccc(C(=O)c2cc3cc(Cl)ccc3[nH]2)c1,3.55 µM
6,COc1ccc(C(=O)Nc2cc3c4c(c2)CC(=O)N4CCC3)c(OC)c1,5.13 µM
7,Cc1ccc(OCc2cnc(Cl)s2)c(C)c1,4.12 µM
8,CC(C)C(=O)Nc1ccc(C(=O)c2ccccc2)cc1,8.18 µM
9,Cc1ccc(-c2csc(NC(=O)c3ccno3)n2)cc1,8.99 µM
10,Cc1ccc(C)c(OCc2cc(C(=O)N3CC[C@@H]4CCCC[C@H]4C3)no2)c1,7.9 µM
11,O=C(CNC(=O)c1ccccc1F)Nc1ccc2c(c1)OCO2,3.55 µM
12,COc1ccccc1/C=C/C=N/n1c(-c2ccccn2)n[nH]c1=S,9.01 µM
13,CN(C(=O)c1ccc2c(Cl)c3c(nc2c1)CCC3)c1ccccc1,6.63 µM
14,O=c1[nH]cnc2nc(-c3ccc(N(CCCl)CCCl)cc3)[nH]c12,0.965 µM
15,Cn1c(SCc2ccccc2)nnc1-c1c[nH]c2ccccc12,17.9 µM
16,C=CCn1cccc(C(=O)Nc2ccc(F)cc2)c1=O,7.32 µM
17,Cc1ccn2cc(C(=O)Nc3nnc(C)s3)nc2c1,1.17 µM
18,Cc1nc(-c2ccccc2)sc1-c1nnc(C2CC2)o1,4.24 µM
19,CO[C@@H]1CN(C)C(=O)c2cc(NC(=O)Nc3ccc4c(c3)OCO4)ccc2OC[C@@H](C)NC[C@@H]1C,3.02 µM
20,O=C(NC1CCCCC1)c1n[nH]c2c1CC(c1ccccc1)CC2 (stereo not given),0.996 µM
21,O=C(Nc1ccc2c(c1)OCO2)c1cnc(Cl)c(Cl)c1,1.74 µM
22,Cc1cccc(NC(=O)CCCc2ccccc2)c1,9.57 µM
23,COc1cccc(-c2cc(C(=O)NC3CCCCC3)no2)c1,1.71 µM
24,Cc1ccc(NC(=O)c2ccnc(C(C)(C)C)c2)cc1,1.95 µM

row,SMILES,AC40
1,CCn1c(COc2ccccc2)nc2ccccc21,22 µM
2,CCCCc1nc2cc(C(=O)N3CCN(c4nc(C)cnc4C)CC3)ccc2o1,2.43 µM
3,CN(C)c1ccc(-c2csc(C(O)c3ccc(F)cc3)n2)cc1 (stereo not given),1.63 µM
4,Cc1nn(Cc2c(F)c(F)c(F)c(F)c2F)c(C)c1NC(=O)c1ccc(COc2cc(Cl)ccc2Cl)cc1,3.23 µM
5,COc1ccc(-c2cc(C(=O)N3CCN(c4ccccc4O)CC3)c3ccccc3n2)cc1,3.16 µM
6,O=C(Nc1cccc(O)c1)c1ccc(Br)c(S(=O)(=O)N2CCCCC2)c1,17.6 µM
7,Cc1ccc2[nH]c(C(=O)N3CCCCC3)cc2c1,6.79 µM
8,COc1cccc(OCc2cc(C(=O)N3CCN(C(C)=O)CC3)no2)c1,3.15 µM
9,COc1ccc(Cl)cc1C(=O)Nc1ccc(Br)c(C)n1,6.83 µM
10,CC1CCN(C(=O)CCc2nnc(-c3ccccc3)o2)CC1,4.2 µM
11,O=C(Cn1cc(C(F)(F)F)cc(Cl)c1=O)NCc1ccc(F)cc1,7.38 µM
12,CC(=O)c1ccc(S(=O)(=O)N(Cc2cc3cc4c(cc3[nH]c2=O)OCCO4)CC2CCCO2)cc1 (stereo not given),15.2 µM
13,N#Cc1ccc(C=NN2CCCCCC2)cc1,2.62 µM
14,CCCC(=O)Nc1sc2c(c1C#N)CCCCC2,2.39 µM
15,COc1ccc(-n2nc(C(=O)NCC(=O)N3CCN(c4ccccc4F)CC3)c3ccccc3c2=O)cc1,1.22 µM
16,COc1ccc2nc(C(c3ccc(C)cc3)n3c(-c4ccccc4Br)nc4ccccc43)[nH]c2c1 (stereo not given),0.494 µM
17,Cc1csc(=O)n1CC(=O)OCc1cccc2ccccc12,11.4 µM
18,Cn1cnc(S(=O)(=O)N2CCCCC2c2cc(C(=O)Nc3ccc(F)c(Cl)c3)no2)c1 (stereo not given),8.38 µM
19,Cc1ccc(C2/C(=C(/O)c3cnn(-c4ccccc4)c3C)C(=O)C(=O)N2CCN2CCOCC2)o1 (stereo not given),8.69 µM
20,Cc1cc(C)c(N=Cc2c(O)c3ccccc3oc2=O)c(C)c1,7.95 µM
21,O=C(CC1CCCC1)Nc1ccc(Br)cc1,16 µM
22,COc1cc2c(cc1OC)C(=Cc1ccc(N(C)C)cc1)C=C2,2.44 µM
23,COc1ccccc1C(=O)NCC(=O)Nc1ccc2c(c1)CCC2,3.24 µM
24,S=C1NC(c2ccccc2)=NCN1c1ccccc1,17.5 µM

row,SMILES,AC40
1,CCC(C)NC(=O)c1cc(-c2ccccc2O)on1 (stereo not given),11.1 µM
2,CCn1cnc2cc(NCc3ccc(OC)cc3)ccc21,0.992 µM
3,C=CCN(C(=O)CC(NC(C)=O)c1ccccc1)c1nc(-c2ccc(S(C)(=O)=O)cc2)cs1 (stereo not given),0.992 µM
4,COc1ccc(NC(=O)c2cc(-c3ccccc3Cl)on2)cc1,11.8 µM
5,CSCc1nc2sc(C(=O)Nc3nc(C)cs3)c(C)c2c(=O)[nH]1,4.19 µM
6,O=C(NC1CCCCCCC1)c1c(O)c2ccccc2[nH]c1=O,2.19 µM
7,CN(C)S(=O)(=O)c1ccc2c(c1)/C(=C/c1cc3c([nH]1)CCCC3)C(=O)N2,3.25 µM
8,O=C(Nc1cccc(Cl)c1Cl)c1ccc(-c2ccccc2)cc1,3.54 µM
9,Cc1ccc(NC(=O)CN(C)S(=O)(=O)c2cccs2)cc1C,2.98 µM
10,Cc1cccc(COc2ccc(/C=N/NC(=O)c3nnn(-c4nonc4N)c3CN3CCCCC3)cc2)c1,34.2 µM
11,CC1CCCN(C(=O)CNC(=O)c2sc3ccccc3c2Cl)C1 (stereo not given),3.96 µM
12,COc1cc(C=O)c(Br)cc1OCc1ccc(C)cc1,4.67 µM
13,O=C(O)c1ccc2c(c1)C(=O)N(CCc1c[nH]c3ccccc13)C2=O,5.77 µM
14,Cc1csc(-c2ccc3cc(Cl)cc(Cl)c3n2)n1,5.82 µM
15,CN(C)c1ccc(N=Cc2nc(-c3ccccc3)oc2OC(=O)c2cccc(Br)c2)cc1,1.2 µM
16,COc1cc(Cl)ccc1OCc1cc(C(=O)N2CCN(C)C(=O)[C@@H]2C)no1,1.64 µM
17,C=CCNc1nc(NCc2ccc(NC(C)=O)cc2)c2sc(-c3ccccc3)cc2n1,0.635 µM
18,Cc1ccnc(NC(=O)c2ccc(OCc3c(C)noc3C)cc2)c1,3.44 µM
19,COc1ccc(-c2nnn(Cc3ccccc3)n2)cc1,0.621 µM
20,Cc1c(C(=O)N2CCCc3ccccc32)sc2nc(-c3ccccc3)cn12,12.5 µM
21,Cc1csc(N/N=C/c2ccccc2F)n1,1.01 µM
22,Cc1cccc(-c2noc(Cc3ccccc3)n2)c1,2.87 µM
23,Oc1cccc(/C=N/N2CCCCC2)c1O,3.47 µM
24,COC(=O)Cc1ccc(OCc2ccc(Cl)nc2)cc1,6.74 µM
